The values below come from ChEMBL document CHEMBL3046269, “The repelling effect of plant secondary metabolites on water voles, Arvicola amphibius” (2013).

The structures appear in SMILES notation. Calls of active or inactive are those of the source. No cut-off for these calls is given here.

Test [1] has as its system Arvicola amphibius. Put plainly: Herbivore repellent activity against adult Arvicola amphibius assessed as duration of stay within test box with apple pieces by T-maze test (reference value: 85.30 +/-13.79%). The class given is functional.
Test [2] has as its system Arvicola amphibius. In words: Herbivore repellent activity against adult Arvicola amphibius assessed as decrease in frequency of entry of test box with apple pieces by T-maze test. The class given is functional, organism-based.
The test system of test [3] is Arvicola amphibius. Put plainly: Herbivore repellent activity against adult Arvicola amphibius assessed as time required to enter the test box with apple pieces for first time by T-maze test (reference value: 268.50 +/-417.85 secs). The class given is functional.
In test [4] the test system is Arvicola amphibius. Put plainly: Herbivore repellent activity against adult Arvicola amphibius assessed as duration of stay within test box with apple pieces by T-maze test (reference value: 59.20 +/-31.75%). The class given is functional.
Test [5] concerns Arvicola amphibius. Put plainly: Herbivore repellent activity against adult Arvicola amphibius assessed as time required to enter the test box with apple pieces for first time by T-maze test (reference value: 438.43 +/-312.37 secs). The class given is functional.
The test system of test [6] is Arvicola amphibius. Put plainly: Herbivore repellent activity against adult Arvicola amphibius assessed as duration of stay within test box with apple pieces by T-maze test (reference value: 59.19 +/-19.83%). Type of test: functional.
Test [7] has as its system Arvicola amphibius. In words: Herbivore repellent activity against adult Arvicola amphibius assessed as time required to enter the test box with apple pieces for first time by T-maze test (reference value: 277.50 +/-166.07 secs). The class given is functional.
For test [8], the system named is Arvicola amphibius. Put plainly: Herbivore repellent activity against adult Arvicola amphibius assessed as duration of stay within test box with apple pieces by T-maze test (reference value: 56.72 +/-13.89%). Type of test: functional.
For test [9], the system named is Arvicola amphibius. Put plainly: Herbivore repellent activity against adult Arvicola amphibius assessed as time required to enter the test box with apple pieces for first time by T-maze test (reference value: 380.25 +/-321.70 secs). Type of test: functional.
Test [10] deals with Arvicola amphibius. Put plainly: Herbivore repellent activity against adult Arvicola amphibius assessed as duration of stay within test box with apple pieces by T-maze test (reference value: 75.53 +/-16.57%). The class given is functional.
In test [11] the test system is Arvicola amphibius. Put plainly: Herbivore repellent activity against adult Arvicola amphibius assessed as time required to enter the test box with apple pieces for first time by T-maze test (reference value: 240.75 +/-184.07 secs). Type of test: functional.

As to `CCCCCCCCCC(C)=O` [METHYL NONYL KETONE], in the test with Arvicola amphibius [1], the Activity is listed as 14.7%. The inhibition entry in the test on Arvicola amphibius [2] is “Active”. Besides, the Time in the test with Arvicola amphibius [3] stood at 888.38 s.

For `CCCS` [1-PROPANETHIOL], the Activity in the test on Arvicola amphibius [4] is listed as 40.8%. The Time in the test with Arvicola amphibius [5] was found to be 996.29 s.

Turning to `CC(C)=CCC/C(C)=C/CO` [GERANIOL], the Activity with Arvicola amphibius [6] was 40.8%. For the same compound, in the test on Arvicola amphibius [7], the Time is reported as 326.38 s.

For the compound `CCCCCCCCC(=O)O` [NONANOATE], the Activity in the test on Arvicola amphibius [8] was 43.28%. Moreover, the Time in the test with Arvicola amphibius [9] turned out to be 507.75 s.

With `CCCCC(=O)O` [VALERIC ACID], in the test on Arvicola amphibius [10], the Activity is given as 24.47%. Moreover, the Time in the test on Arvicola amphibius [11] is reported as 769.13 s.
